Results reported in patent EP1640447A1, “BIOACTIVE PEPTIDE-PRODUCING STRAINS OF i ENTEROCOCCUS FAECALIS /i , BIOACTIVE PEPTIDES AND APPLICATIONS THEREOF” (Grupo Leche Pascual S.A., priority 2003, dated 2004).
Peptide text beside a SMILES is read from it.

Target: T1, Angiotensin Converting Enzyme (ACE) (Oryctolagus cuniculus, UniProt P12822)
T1 sequence (P12822 34-1310): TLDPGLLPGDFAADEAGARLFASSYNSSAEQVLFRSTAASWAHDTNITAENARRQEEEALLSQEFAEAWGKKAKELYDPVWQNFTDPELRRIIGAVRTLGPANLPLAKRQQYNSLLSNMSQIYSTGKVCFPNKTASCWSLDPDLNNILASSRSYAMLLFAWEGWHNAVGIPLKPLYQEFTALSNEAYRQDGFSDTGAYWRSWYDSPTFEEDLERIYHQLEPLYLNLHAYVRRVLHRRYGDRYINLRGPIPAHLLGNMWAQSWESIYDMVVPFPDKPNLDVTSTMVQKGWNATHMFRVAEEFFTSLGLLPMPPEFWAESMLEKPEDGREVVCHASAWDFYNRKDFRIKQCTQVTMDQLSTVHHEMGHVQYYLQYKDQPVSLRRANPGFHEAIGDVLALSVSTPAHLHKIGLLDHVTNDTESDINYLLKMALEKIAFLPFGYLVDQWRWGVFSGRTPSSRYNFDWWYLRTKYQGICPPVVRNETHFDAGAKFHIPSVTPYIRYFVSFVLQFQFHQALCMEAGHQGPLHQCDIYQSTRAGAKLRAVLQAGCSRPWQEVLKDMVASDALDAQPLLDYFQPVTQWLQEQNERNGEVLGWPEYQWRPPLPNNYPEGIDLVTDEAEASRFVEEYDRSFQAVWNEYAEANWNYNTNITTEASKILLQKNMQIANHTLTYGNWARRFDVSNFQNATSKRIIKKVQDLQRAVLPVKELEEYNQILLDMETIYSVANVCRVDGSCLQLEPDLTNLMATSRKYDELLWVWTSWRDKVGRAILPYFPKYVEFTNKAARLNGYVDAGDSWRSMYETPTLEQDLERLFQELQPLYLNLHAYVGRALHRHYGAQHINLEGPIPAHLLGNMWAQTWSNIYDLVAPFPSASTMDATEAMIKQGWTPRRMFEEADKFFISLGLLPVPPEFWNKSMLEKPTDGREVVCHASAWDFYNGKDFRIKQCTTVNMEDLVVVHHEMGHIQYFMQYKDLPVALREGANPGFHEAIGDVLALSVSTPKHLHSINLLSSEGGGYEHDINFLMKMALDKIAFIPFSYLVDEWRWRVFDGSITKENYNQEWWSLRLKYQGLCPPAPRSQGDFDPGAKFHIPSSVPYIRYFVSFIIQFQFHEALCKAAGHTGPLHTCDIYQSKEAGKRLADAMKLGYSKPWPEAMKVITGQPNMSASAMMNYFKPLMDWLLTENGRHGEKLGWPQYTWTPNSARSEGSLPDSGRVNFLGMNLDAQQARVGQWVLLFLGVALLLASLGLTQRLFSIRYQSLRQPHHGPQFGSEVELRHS
Experiment: Measurement of ACE inhibitor activity (ACEI activity), Hip-His-Leu substrate, hippuric acid read at 228 nm
Assay type: biochemical
Details: chemically synthesized peptides, Table 4
Description: The measurement of ACE activity was performed according to the method disclosed by Cushman and Cheung (Cushman DW, Cheung HS. 1971. Biochem Pharmacol 20:1637-1648) and subsequently modified by Nakamura (Nakamura Y, Yamamoto N, Sakai K et al. 1995. J Dairy Sci 78:777-783). This method is based on the use of Hippuryl-L-Histidyl-L-Leucine (Hip-His-Leu) as substrate given that the action of the ACE on such substrate produced the release of hippuric acid, easily quantifiable by spectrophotometry by absorbance reading at 228 nm (A228) after extraction thereof with ethyl acetate. If the sample to be tested is added to the reaction tube along with the ACE and the substrate, the ACEI activity of the sample tested can be determined. As is mentioned in Example 1.1, during the selection of bacteria the sample used to measure ACEI activity was the supernatant of the fermented milk, subjected to centrifugation at 20,000 x g for 10 minutes and subsequently diluted to half with distilled water.
The substrate solution was formed by 0.1 M sodium borate, 300 mM sodium chloride, 5 mM Hip-His-Leu (Sigma, St. Louis, MO), pH 8.3 at 37°C. The ACE enzyme solution (Sigma, St. Louis, MO) was adjusted to an activity of 0.1 U/mL.
The different reaction mixtures were incubated for 30 minutes at 37°C and subsequently 150 µL of 1 M hydrochloric acid were added in order to stop the reaction and subsequently 1,000 µL, of ethyl acetate in order to extract the hippuric acid. The resulting mixtures were vigorously stirred for 20 seconds and centrifuged at 1,500 x g for 10 minutes in order to separate and collect from each tube the upper phase (ethyl acetate). 750 µL of each upper phase were pipetted into individual tubes, which were introduced in a bath of boiling water under a fume extraction hood until the solvent evaporated. Once the ethyl acetate was eliminated 800 µL of distilled water were added to each tube to dissolve the dry residue smoothly and without stirring. Finally the content of each tube was transferred to quartz cuvettes to read their absorbance at 228 nm. The inhibition percentage (% Inhibition) was calculated by applying the following formula: %Inhibition = ((A)−(B))/((C)−(D)) [formula] wherein (A), (B), (C) and (D) correspond to the absorbances at 228 nm of the solutions indicated in Table 2.
To perform this fermentation example, E. faecalis CECT 5727, E. faecalis CECT 5728, E. faecalis CECT 5826 or E faecalis CECT 5827 may be used indistinctly. The substrate is skimmed bovine milk powder reconstituted in water at 10% and autoclaved ([…] for 20 minutes). First a starter liquid was made, inoculating the substrate with a culture loop such that the initial population was 10^5-10^7 CFU/mL and incubating for 24 hours. 3% by weight of this culture was used as inoculum for the second fermentation which was maintained for 48 hours. Both fermentations were carried out at 30°C. The fermenting process was stopped by pasteurizing the fermented milk [75°C for 1 minute] and the final pasteurized product was used to measure ACEI activity according to the protocol described in Example 1.2, although in this case the fermented milks were subjected to the pasteurization treatment mentioned before being centrifuged at 20,000 x g for 10 minutes. […] Therefore, the final reaction volume is always 160 µL [100 µL of the substrate solution, 20 µL of the ACE solution and 40 µL of the sample to be tested (supernatant at the corresponding dilution with distilled water)].

| SMILES | IC50 [µM] |
| --- | --- |
| CC(C)C[C@H](NC(=O)[C@@H]1CCCN1C(=O)[C@H](CC(C)C)NC(=O)[C@H](Cc1cnc[nH]1)NC(=O)[C@@H](N)CC(C)C)C(=O)N1CCC[C@H]1C(=O)O [SEQ. ID. NO: 1, LHLPLP] (H-LHLPLP-OH) | 5.4 |
| CC(C)C[C@H](NC(=O)[C@@H]1CCCN1C(=O)[C@H](CC(C)C)NC(=O)[C@@H]1CCCN1C(=O)[C@H](CC(C)C)NC(=O)[C@H](Cc1c[nH]cn1)NC(=O)[C@@H](N)CC(C)C)C(=O)O [SEQ. ID. NO: 3, LHLPLPL] (H-LHLPLPL-OH) | 433 |
| CC(C)C[C@H](N)C(=O)N[C@H](C(=O)N[C@@H](CCC(N)=O)C(=O)N[C@H](C(=O)N1CCC[C@H]1C(=O)N[C@H](C(=O)N[C@H](C(=O)N[C@H](C(=O)N1CCC[C@H]1C(=O)N1CCC[C@H]1C(=O)N[C@@H](Cc1ccccc1)C(=O)O)C(C)C)C(C)C)C(C)C)[C@@H](C)O)[C@@H](C)O [SEQ. ID. NO: 6, LTQTPVVVPPF] (H-LTQTPVVVPPF-OH) | > 700 |
| CC[C@H](C)[C@H](NC(=O)[C@@H]1CCCN1C(=O)CNC(=O)[C@@H]1CCCN1C(=O)[C@H](Cc1ccccc1)NC(=O)[C@@H]1CCCN1C(=O)[C@H](Cc1ccc(O)cc1)NC(=O)[C@@H](NC(=O)[C@@H](N)CC(C)C)C(C)C)C(=O)N1CCC[C@H]1C(=O)N[C@@H](CC(N)=O)C(=O)N[C@@H](CO)C(=O)N[C@@H](CC(C)C)C(=O)N1CCC[C@H]1C(=O)N[C@@H](CCC(N)=O)C(=O)N[C@@H](CC(N)=O)C(=O)N[C@H](C(=O)N1CCC[C@H]1C(=O)N1CCC[C@H]1C(=O)O)[C@@H](C)CC [SEQ. ID. NO: 8, LVYPFPGPIPNSLPQNIPP] (H-LVYPFPGPIPNSLPQNIPP-OH) | 5.3 |

Results, then the compound that gave them:

| IC50 [µM] | SMILES |
| --- | --- |
| 137 | CC(C)C[C@H](NC(=O)[C@@H](N)C(C)C)C(=O)NCC(=O)N1CCC[C@H]1C(=O)N[C@H](C(=O)N[C@@H](CCCNC(=N)N)C(=O)NCC(=O)N1CCC[C@H]1C(=O)N[C@@H](Cc1ccccc1)C(=O)N1CCC[C@H]1C(=O)O)C(C)C [SEQ. ID. NO: 2, VLGPVRGPFP] (H-VLGPVRGPFP-OH) |
| 630 | CC[C@H](C)[C@H](NC(=O)[C@@H](NC(=O)[C@@H]1CCCN1C(=O)[C@H](Cc1ccccc1)NC(=O)[C@@H]1CCCN1C(=O)CNC(=O)[C@H](CCCNC(=N)N)NC(=O)[C@@H](N)C(C)C)[C@@H](C)CC)C(=O)N[C@H](C(=O)O)C(C)C [SEQ. ID. NO: 4, VRGPFPIIV] (H-VRGPFPIIV-OH) |
| > 700 | CC(C)[C@H](N)C(=O)N[C@H](C(=O)N[C@H](C(=O)N1CCC[C@H]1C(=O)N1CCC[C@H]1C(=O)N[C@@H](Cc1ccccc1)C(=O)O)C(C)C)C(C)C [SEQ. ID. NO: 5, VVVPPF] (H-VVVPPF-OH) |
| > 700 | CC[C@H](C)[C@H](NC(=O)[C@@H](NC(=O)[C@@H]1CCCN1C(=O)[C@H](Cc1ccccc1)NC(=O)[C@@H]1CCCN1C(=O)CNC(=O)[C@H](CCCNC(=N)N)NC(=O)[C@@H](NC(=O)[C@@H]1CCCN1C(=O)CNC(=O)[C@H](CC(C)C)NC(=O)[C@@H](N)C(C)C)C(C)C)[C@@H](C)CC)C(=O)N[C@H](C(=O)O)C(C)C [SEQ. ID. NO: 7, VLGPVRGPFPIIV] (H-VLGPVRGPFPIIV-OH) |
